One series relates to Smad1. Description: Western blot of pSmad1 and tSmad1 in THP-1 cells. The series is classed as cell-based, human. The following applies: THP-1 cells treated with RSPO2 siRNA plus inhibitor. On the procedure:
Cultured cells were rinsed with cold PBS and lysed in Triton lysis buffer ([…] Tris-Cl, pH 7.5, 1% Triton X-100, 150 mM NaCl, 1 mM EDTA, 1 mM EGTA, 1 mM β-glycerophosphate, 1 mM Na3 VO4) or RIPA buffer with complete Protease Inhibitor Cocktail (Roche 11697498001). Lysates were mixed with Laemmli buffer with β-mercaptoethanol and boiled at 95° C. for 5 min to prepare SDS-PAGE samples. Western blot images were acquired with SuperSignal West pico ECL (ThermoFisher 34580) or Clarity Western ECL (Biorad 1705061) using LAS-3000 system (FujiFilm). Quantification of blots was done using ImageJ software.
(§1) THP-1 cells were treated with 0.3, 1.0 and 3.0 μg ml^−1 goat polyclonal anti-RSPO2 antibodies (R&D systems AF3266) or goat polyclonal GFP antibodies (ABIN 100085). After 48 hours, medium was replaced including fresh antibodies—and incubated another 24 hours. Western blot analysis and FACS analyses were performed as discussed above.

Series [1] relates to THP-1 cells. Description: Monocyte-macrophage differentiation of THP-1 cells (FACS / qRT-PCR of CD14, CD11B). The series is classed as cell-based, human. On the procedure: Cultured cells were lysed in Macherey-Nagel RAI buffer containing 1% β-mercaptoethanol and total RNAs were isolated using NucleoSpin RNA isolation kit (Macherey-Nagel 740955). Reverse transcription and PCR amplification were performed. Primers used in this study are listed in Supplementary Table 1. Graphs show relative gene expressions to GAPDH. […] Statistical analyses were performed using PRISM7 software with unpaired t-test or one-way ANOVA test.
For analyzing macrophage differentiation of THP-1, cells were harvested, pelleted and resuspended in ice-cold blocking buffer (PBS supplemented with 1% BSA and 0.1% NaN3). Cells were treated with Fc Receptor Binding Inhibitor as recommended by the manufacturer (eBioscience 14916173) and stained directly with FITC/APC-conjugated antibodies diluted in blocking buffer or with non-conjugated primary antibodies followed by fluorochrome-labeled secondary antibodies. Isotype-matched antibodies were used as controls. Dead cells were excluded by counterstaining with propidium iodide. For analyzing apoptosis of THP-1, cells were fixed in 4% PFA, permeabilized by MeOH and blocked with PBS supplemented with 1% BSA and 0.1% Tween-20. Cells were stained with anti-active Caspase-3 antibody and fluorochrome-labeled secondary antibody. FACS Samples were analyzed with FACSCalibur or FACSCanto (BD Biosciences). 10,000 events per samples were acquired, and results were processed with Cell Quest or FACSDiva software (BD Biosciences). For BMP4 stimulation, cells were treated with 5 and 25 ng ml^−1 recombinant human BMP4 protein (R&D systems 314-BP). 100, 300 and 1000 nM LDN […] (Tocris 6053) were used for rescue assay. For the THP-1 cell number quantification and differentiation validation in vivo, bone marrow cells were harvested from tibias of NSG mice and red blood cells were removed by ACK Lysing Buffer (Gibco A1049201). Cells were stained and analyzed as above. Here, 50,000 PI-negative events per samples were acquired.
as §1
(§2) The sequences of shRSPO2 and shControl (Table 1) were synthesized, inserted into the transfer plasmid Tet-pLKO-puro (Addgene 21915) and validated by sequencing. Lentivirus was produced with the 3rd generation lentiviral system according to the protocol available at the Trono lab as described (www.epfl.ch/labs/tronolab/). THP-1 cells were infected with lentivirus with 8 μg ml^−1 Polybrene (Sigma TR-1003) and selected with 0.5 μg ml^−1 puromycin (Calbiochem 540411). Single cell clones were obtained by limiting dilutions. The shRNA expression of clones was validated by monitoring RSPO2 expression after doxycycline treatment (1.0 μg ml^−1) for 3 days.

Another series relates to BMP4 signaling. Description: BRE reporter assay in HEPG2 cells stimulated by BMP4. The series is classed as cell-based, human. The conditions noted are these: HEPG2 cells. On the procedure:
BRE luciferase assays were executed using 300,000 ml^−1 of HEPG2 cells in 24-well plates. PGL3-BRE-Luciferase (500 ng ml^−1) and pRL-TK-Renilla plasmids (50 ng ml^−1) were transfected using Lipofectamine 3000. After 24 hours, cells were serum starved 2 hours and stimulated 14-16 hours with 80 ng ml^−1 recombinant human BMP4 protein (R&D systems 314-BP) along with AP tagged RSPO1-4 or flag tagged RSPO1-3 conditioned medium. Luciferase activity was measured with the Dual luciferase reporter assay system (Promega E1960). Firefly luminescence (BRE) was normalized to Renilla. TOPFlash luciferase assays were carried out as previously described (Berger et al. (2017), EMBO Rep 18, 712-725, doi: 10.15252/embr.201643585). […] Statistical analyses were made with the PRISM7 software using unpaired t-test or one-way ANOVA test. Not significant (ns) P>0.05, *P<0.05, **P<0.01, ***P<0.001, and ****P<0.0001.

The test system of another series is Xenopus embryos. Put plainly: Crispr-Cas9-mediated Xenopus rspo2 knockout embryos. The series is classed as in vivo, Xenopus tropicalis.
Series [2] deals with THP-1 cells. Description: THP-1 cell growth and colony formation assay. The series is classed as cell-based, human. The conditions noted are these: TetOn-shRSPO2 clones, Dox treatment. On the procedure: as §2
1,000 cells per well of Dox-inducible THP-1 clones were seeded into 24-well plates in RPMI+10% FBS, 1% penicillin-streptomycin, 1 mM sodium pyruvate, 2 mM L-glutamine and 0.5% methylcellulose, with or without Doxycycline (1 μg ml^−1). After 8 days incubation, microscopic dark field images were taken using LEICA DMIL microscope/Canon DS126311 camera.

Series [3] concerns THP-1 cells. Description: THP-1 AML xenograft in NSG mice. It counts as in vivo, mouse. On the procedure: For analyzing macrophage differentiation of THP-1, cells were harvested, pelleted and resuspended in ice-cold blocking buffer (PBS supplemented with 1% BSA and 0.1% NaN3). […] Isotype-matched antibodies were used as controls. Dead cells were excluded by counterstaining with propidium iodide. For analyzing apoptosis of THP-1, cells were fixed in 4% PFA, permeabilized by MeOH and blocked with PBS supplemented with 1% BSA and 0.1% Tween-20. […] FACS Samples were analyzed with FACSCalibur or FACSCanto (BD Biosciences). 10,000 events per samples were acquired, and results were processed with Cell Quest or FACSDiva software (BD Biosciences). […] For the THP-1 cell number quantification and differentiation validation in vivo, bone marrow cells were harvested from tibias of NSG mice and red blood cells were removed by ACK Lysing Buffer (Gibco A1049201). Cells were stained and analyzed as above. Here, 50,000 PI-negative events per samples were acquired.
NOD SCID gamma (NSG) mice were recruited from the Center for Preclinical Research, DKFZ, Heidelberg. […] Randomized mouse cohorts (n=6-7 mice/group) were treated with Dox or vehicle throughout the study. Treatment started 3 days prior to cell transplantation via drinking water consisting 1 mg/ml Dox and 5% saccharose, or 5% saccharose only. […] 500,000 cells in 100 μl PBS were injected intravenously into the lateral tail vein of 7-8-week-old female mice. Besides regular health checks, mouse body weight was taken twice per week throughout the experiment. Heparinized blood was collected from the tail vein at days 9 and 22 after transplantation. Terminal blood collection was performed under isoflurane anesthesia followed by cervical dislocation. Necropsies were taken as indicated or when mice reached a stop criterion of the German Society of Laboratory Animal Sciences (GV-SOLAS), until here defined as survival. All mouse experiments were in accordance with the approved guidelines of the local Governmental Committee for Animal Experimentation (RP Karlsruhe, Germany, license G140/19).
For each reaction, 25 ng genomic DNA was used. A standard curve was generated with genomic DNA extracted from NSG mice blood containing known numbers of THP-1 cells and used for converting qPCR fluorescent signals to actual cell numbers. Normal NSG mice blood and nuclease free water were used as negative controls.

The target in the next series is T1, ALK3RD (Homo sapiens, UniProt P36894, Q233D).
T1 construct: expressed in transfected cells; host or cells: HEPG2
T1 sequence (P36894 24-532 Q233D): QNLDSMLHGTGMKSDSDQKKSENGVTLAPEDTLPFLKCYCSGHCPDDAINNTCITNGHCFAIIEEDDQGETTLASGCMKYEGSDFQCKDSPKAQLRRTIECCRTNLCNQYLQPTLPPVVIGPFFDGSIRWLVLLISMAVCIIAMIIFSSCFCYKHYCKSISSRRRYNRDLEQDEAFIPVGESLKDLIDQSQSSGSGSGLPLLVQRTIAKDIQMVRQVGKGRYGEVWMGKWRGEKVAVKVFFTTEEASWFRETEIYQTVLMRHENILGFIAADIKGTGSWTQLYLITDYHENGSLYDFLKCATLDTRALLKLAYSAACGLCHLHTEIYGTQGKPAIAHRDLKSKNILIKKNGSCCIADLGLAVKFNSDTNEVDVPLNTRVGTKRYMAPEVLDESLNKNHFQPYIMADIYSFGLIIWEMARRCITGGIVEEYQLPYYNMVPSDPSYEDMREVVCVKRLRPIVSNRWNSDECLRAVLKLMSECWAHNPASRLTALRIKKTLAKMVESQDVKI
Put plainly: BRE reporter assay in HEPG2 cells with constitutively active ALK3. The conditions noted are these: RSPO treatment. It counts as cell-based. From the text: Alkaline phosphatase (AP) fusions with RSPOs (human RSPO1^ΔC-AP-pCDNA3, RSPO2^ΔC-AP-pCDNA3, RSPO2^ΔC-AP-pCS2+, RSPO3^ΔC-AP-pCDNA3, murine RSPO4^ΔC-pCDNA3) were generated by replacing the C-terminal domain (ΔC) by AP and used to produce conditioned media. Human RSPO2 wild-type (RSPO2), Furin1 and Furin2 deletion mutants (RSPO2^ΔFU), and TSP1 domain deletion mutant (RSPO2^ΔTSP) are ORFs lacking the C-terminal domain, C-terminally tagged with a Flag-tag and subcloned into pCS2+. R1-TSP^R2, R1-TSP^R2-AP and R1-TSP^R2-Flag plasmids were generated by fusion PCR and cloned in pCS2+. Conditioned media from all RSPO constructs were adjusted to equal concentration by western blot and AP activity measurement, and further validated by WNT reporter assay using HEK293T cells. The extracellular domain of ALK3 (ALK3^ECD) was subcloned in AP-pCS2+ for generating conditioned medium and used in in vitro binding assays. Constitutively active forms of ALK2,3,6 (ALK^QD) were generated by Gln-Asp mutations as described in Fujii et al. (1999), Mol Biol Cell 10, 3801-3813, doi: 10.1091/mbc.10.11.3801. HA-tagged ALK3 was a gift from Dr. D. Koinuma (Goto et al. (2007), J Biol Chem 282, 20603-20611, doi: 10.1074/jbc.M702100200). For Xenopus mRNA microinjection, Xenopus laevis BMP4-pCS2+, myc-tagged RSPO2^ΔC-myc-pCS2+, RSPO2^ΔFU-myc-pCS2+ and RSPO2^ΔTSP-myc-pCS2+ plasmids, DNALK3-pCS2+, membrane-RFP, EYFP-tagged human ALK3-pCS2+ were used for in vitro transcription. Human ZNRF3 and ZNRF3^ΔRING constructs were gifts from Dr. F. Cong (Novartis; Hao et al. (2012), Nature 485, 195-200, doi: 10.1038/nature11019), and ORFs were subcloned in flag-pCS2+ for in vitro transcription.
BRE luciferase assays were executed using 300,000 ml^−1 of HEPG2 cells in 24-well plates. PGL3-BRE-Luciferase (500 ng ml^−1) and pRL-TK-Renilla plasmids (50 ng ml^−1) were transfected using Lipofectamine 3000. […] Luciferase activity was measured with the Dual luciferase reporter assay system (Promega E1960). Firefly luminescence (BRE) was normalized to Renilla. […]
On the technique in general: In a reporter assay the amount or activity of a reporter protein is the signal.

As to `c1ccc2c(-c3cnn4cc(-c5ccc(N6CCNCC6)cc5)cnc34)ccnc2c1` [LDN 193189], the “Smad1-phosphorylation increased by RSPO2 knockdown” value in the series on Smad1 is reported as “reverted increased Smad1-phosphorylation”. Further, the “monocyte-macrophage differentiation induced by siRSPO2” value in the series with THP-1 cells [1] (THP-1 cells, siRSPO2 plus inhibitor) is “impaired monocyte-macrophage differentiation”.

In the case of `CN(C)c1cccc2c(S(=O)(=O)NCCCCCN)cccc12` [monodansylcadaverin, reference compound], in the series on BMP4 signaling (BMP4+RSPO2), the “effect on inhibition of BMP signaling by RSPO2” value is “eliminated inhibition of BMP signaling by RSPO2”.

Regarding “gRNA: previously established guide RNA for Crispr-Cas9 rspo2 knockout, TGACTCCATAGTATCCAGGA (SEQ ID NO:11) (listed as DNA, chemistry not given here)”, the embryo phenotype result in the series with Xenopus embryos is given as “mildly ventralized embryos”. In the series on Xenopus embryos (sizzled in situ hybridization), the “BMP target gene expression” value is listed as “increased BMP target gene expression”.

Consider “shRSPO2: Dox-inducible shRNA against RSPO2, SEQ ID NO:10, expressed in THP-1 clones (GACAATGGGTGTAGCCGATCTCGAGATCGGCTACACCCATTGTC)”, for which the “BMP signaling and monocyte-macrophage differentiation” value with THP-1 cells [1] (THP-1 TetOn-shRSPO2 clones, Dox-administration) is “induced BMP signaling and robust monocyte-macrophage differentiation”. Besides, in the series with THP-1 cells [2], the THP-1 cell growth entry was “reduced THP-1 cell growth” and the colony formation result is “reduced”. Further, the “prolongation of disease-free survival” value with THP-1 cells [3] (NSG mice injected with TetOn-shRSPO2 THP-1 cell line #1, Dox induction, still alive at reporting time) is recorded as “at least 2.3 fold”. In addition, the survival result with THP-1 cells [3] (NSG mice injected with TetOn-shRSPO2 THP-1 cell line #2, Dox induction) is on record as “survived almost twice as long”. In addition, in the series with THP-1 cells [3] (NSG mice, TetOn-shRSPO2 THP-1 cells, Dox induction), the tumor burden entry is given as “reduced tumor burden”. In addition, in the series on THP-1 cells [3] (NSG mice, both TetOn-shRSPO2 cell lines, Dox induction), the “macrophage differentiation in bone marrow” value is reported as “enhanced macrophage differentiation”.

B1: RSPO3: human R-spondin 3 protein (SEQ ID NO:2); conditioned medium or recombinant (Peprotech 120-44) (protein, listed as Homo sapiens)
chain: MHLRLISWLFIILNFMEYIGSQNASRGRRQRRMHPNVSQGCQGGCATCSDYNGCLSCKPRLFFALERIGMKQIGVCLSSCPSGYYGTRYPDINKCTKCKADCDTCFNKNFCTKCKSGFYLHLGKCLDNCPEGLEANNHTMECVSIVHCEVSEWNPWSPCTKKGKTCGFKRGTETRVREIIQHPSAKGNLCPPTNETRKCTVQRKKCQKGERGKKGRERKRKKPNKGESKEAIPDSKSLESSKEIPEQRENKQQQKKRKVQDKQKSVSVSTVH
For the molecule B1, in the series with BMP4 signaling (BMP4 stimulation, treatment with RSPO protein), the BMP4 signaling result is reported as “decreased BMP4 signaling”. Besides, in the series with ALK3RD, the “BMP signaling induced by constitutively active ALK3” value is on record as “specifically inhibited”.

B2: RSPO1: secreted R-spondin protein; conditioned medium or recombinant human RSPO1 (Peprotech 120-38) (protein, UniProt Q2MKA7 21-263, looked up)
R-spondin-1: SRGIKGKRQRRISAEGSQACAKGCELCSEVNGCLKCSPKLFILLERNDIRQVGVCLPSCPPGYFDARNPDMNKCIKCKIEHCEACFSHNFCTKCKEGLYLHKGRCYPACPEGSSAANGTMECSSPAQCEMSEWSPWGPCSKKQQLCGFRRGSEERTRRVLHAPVGDHAACSDTKETRRCTVRRVPCPEGQKRRKGGQGRRENANRNLARKESKEAGAGSRRRKGQQQQQQQGTVGPLTSAGPA
On to B2, for which the “BMP signaling induced by constitutively active ALK3” value with ALK3RD was “had no effect”.
